System: E. coli (Escherichia coli)
Assay: Antibacterial test, MIC by standard dilution method (O.D. 600)
Format: cell-based
Conditions: FIG. 4
Method: The minimum inhibitory concentration (MIC) value of a carbon quantum dot was determined by a standard dilution method in a variety of tested bacterial strains, including E. coli (Escherichia coli), P. aeruginosa (Pseudomonas aeruginosa), S. enteritidis (Salmonella enterica), S. aureus (Staphylococcus aureus), MRSA (Methicillin-resistant Staphylococcus aureus, a multi-drug resistant Staphylococcus), S. iniae (Streptococcus iniae), and C. albicans (Candida albicans).
A single colony of each strain was removed from the culture medium, and inoculated in each suitable growth medium (10 mL). The cultured bacteria were grown at 37° C. with shaking (200 rpm), until the absorbance at 600 nm (O.D. 600) reaches 1.0 (optical path length: 1.0 cm). Each cell mixture was centrifuged at 1.0 mL (RCF 3,000×g, […], 25° C.), and washed twice with 5 mM sodium phosphate buffer (pH 7.4) before further use. The carbon quantum dots were mixed with a 10^5 CFU/mL bacterial solution, and the final concentration of the reaction bacterial solution was 10^4 CFU/mL. After reaction for 3 hours, each suitable growth medium was added. After 12 hours of incubation in the incubator at the culture temperature of each strain, the absorbance at 600 nm (O.D. 600) was measured.

NCCCCCCN [C, 1,6-diamino-hexane]
antibacterial ability (comparison in words): worst antibacterial effect
